Assay results published in US8465947B2, “Lantibiotic biosynthetic gene clusters from A. garbadinensis and A. liguriae” (Novacta Biosystems Limited, priority 2006, dated 2013).
In brackets after ≈: the same amount, converted by molar mass.

Tested on: C. difficile
Test: MIC against C. difficile, NCCLS agar dilution method for anaerobic bacteria
Format: cell-based, Clostridium difficile
Settings: calcium 50 μg/ml
Procedure: Minimum inhibitory concentrations (MICs) for C. difficile were determined and antimicrobial agent stock solutions were prepared and stored according to the NCCLS reference agar dilution method for anaerobic bacteria (M11-A5, 2001). Two-fold serial antibiotic dilutions were prepared in Wilkens-Chalgren agar (WCA). Test organisms were selected from 48 hour growth on Braziers (C.C.E.Y.) agar, subcultured in Schaedler broth to a density equivalent to a McFarland 0.5 standard (1×10^8 CFU/ml), with a final inoculum onto WCA plates of approximately 10^5 CFU/spot. Bacteroides fragilis ATCC 25285 was included as a reference control strain and Metronidazole was used as a reference antibiotic for quality control. All manipulations were performed in duplicate in ambient atmosphere in pre-reduced media with only brief exposure to oxygen. Plates were incubated anaerobically for 48 hours at 37° C. with the MIC defined as the concentration of drug where a marked reduction occurred in the appearance of growth on the test plate compared to growth on the anaerobic control plate.
Culture media were supplemented with calcium ions (as calcium chloride) at 50 μg/ml except where higher concentrations are indicated.

Row | Structure (SMILES) | MIC C. difficile 19126 | MIC C. difficile 37779
1 | CC[C@H](C)[C@@H]1NC(=O)[C@@H]2NC(=O)[C@H](CC(C)C)NC(=O)[C@H](NC(=O)[C@@H]3CSC[C@@H](NC(=O)[C@@H](N)Cc4c[nH]c5ccccc45)C(=O)N[C@@H](CO)C(=O)NCC(=O)N[C@@H](Cc4c[nH]c5ccccc45)C(=O)N[C@@H](C(C)C)C(=O)N3)[C@H](C)SC[C@H](NC(=O)[C@H](CCC(=O)O)NC1=O)C(=O)NCC(=O)N[C@H]1C(=O)N[C@@H](CC(C)C)C(=O)N[C@@H](C(C)C)C(=O)N[C@@H](CS[C@H]2C)C(=O)N[C@@H](C)C(=O)N[C@H](C(=O)O)CS[C@H]1C [Compound IX, L-Tryp(0)deoxyactagardine B] | 2 µg/mL (≈ 0.971 µM) | 1 µg/mL (≈ 0.485 µM)
2 | CC[C@H](C)[C@@H]1NC(=O)[C@@H]2NC(=O)[C@H](CC(C)C)NC(=O)[C@H](NC(=O)[C@@H]3CSC[C@@H](NC(=O)[C@@H](N)C(C)C)C(=O)N[C@@H](CO)C(=O)NCC(=O)N[C@@H](Cc4c[nH]c5ccccc45)C(=O)N[C@@H](C(C)C)C(=O)N3)[C@H](C)SC[C@H](NC(=O)[C@H](CCC(=O)O)NC1=O)C(=O)NCC(=O)N[C@H]1C(=O)N[C@@H](CC(C)C)C(=O)N[C@@H](C(C)C)C(=O)N[C@@H](CS[C@H]2C)C(=O)N[C@@H](C)C(=O)N[C@H](C(=O)O)CS[C@H]1C [Compound VI, L-Val(0)deoxyactagardine B] | 8 µg/mL (≈ 4.05 µM) | 8 µg/mL (≈ 4.05 µM)
